From patent US20120009320A1, “COMPOSITIONS COMPRISING MONATIN AND CALCIUM” (priority 2009, published 2012)
Counter-ions that a name gives are not always drawn.

How the values were obtained:
[1] = Sweetness match of monatin-sweetened vanilla ice cream to 13% sucrose target; type: in vivo
Protocol: A vanilla ice cream sweetened with about 13% sucrose was prepared by conventional methods common to one skilled in the art of ice cream manufacturing to serve as a sweetness target. Then a set of seven (7) ice cream samples were sweetened with R,R-monatin monopotassium salt using the ingredients listed in Table 13. The amount of monatin in the seven samples was about 35 ppm, about 40 ppm, about 45 ppm, about 50 ppm, about 55 ppm, about 60 ppm and about 70 ppm. Each of the seven samples of monatin-sweetened ice cream were compared to the target ice cream sample containing 13% sucrose. The monatin-sweetened ice cream that most closely matched the sweetness of the target sucrose sample was chosen.

[2] = Sweetness of monatin stereoisomers relative to sucrose by weight (from SEV); type: in vivo; conditions: general statement of the description; listed as R,R stereoisomer of monatin, mono potassium salt
Protocol: As used herein, “sucrose equivalency value”, or SEV, is a measure of sweetness. The SEV is the concentration (% w/v) of a sucrose solution that gives a degree of sweetness that is perceived to be the same degree of sweetness as that of a test sample. For purposes of this disclosure, the SEV of an aqueous or dairy solution containing monatin is determined through comparison of the monatin-containing solution to a series of sucrose containing solutions prepared in the same medium (see Example 1).
Monatin-containing compositions are described herein as being “X” times as sweet as sucrose. The various stereoisomers of monatin are also described as being “X” times sweeter than sucrose. These values are determined from the SEV of the compositions.

panelists = test: Sweetness matching of monatin/salt combinations in water pH 7 and citric/citrate buffer pH 3, Examples 3-5; type: in vivo, human; conditions: Monatin only (40 ppm), no salt
Protocol: Test and reference solutions were prepared in the same medium. The SEVs of monatin/salt combinations at the appropriate concentrations were measured and compared to the SEV of monatin measured in the absence of any salts. […] Monatin-containing test samples and sucrose references were prepared in the same medium. Based on the previous observations that the sweetness of monatin relative to sucrose is sweeter at acidic pH, this study was carried out under two pH conditions; specifically, in water at pH 7-7.5 and in a citric/citrate buffer at pH 3.0. 2R,4R-Monatin mono potassium salt was used as an illustrative form of monatin for the experiments below. All monatin solutions were prepared ‘as is’, i.e., a 40 ppm monatin solution is 40 ppm of monatin mono potassium salt. A sweetness matching procedure was adopted. […] Each test sample was either monatin control or monatin plus designated salt at the stated concentration. Panelists were instructed to taste the test sample and then to identify the reference sample that matched the perceived sweetness of the test sample. If the sweetness of the test sample was judged to fall between that of two references, panelists were instructed to estimate sweetness to one decimal point. Panelists evaluated each sample in duplicate. Results for each test sample were averaged. […] The five samples were tested at pH 7 (water medium) and at pH 3 (citric/citrate buffer). […] The weight percent of calcium in the salt is different for each of the calcium salts. As such, the weight percent of the calcium salt in each sample is calculated in order to determine how much salt is needed to deliver 1200 ppm of calcium cations. […] The weight percent of the other calcium salts is similarly calculated based on the molar weight percent of calcium in the calcium salt. […] The samples were created at pH 3 and pH 7. The impact of other metal ions, specifically potassium and magnesium, (i.e. […] These ions were tested in the form and concentrations found in cow's milk.

For NC(CC(O)(Cc1c[nH]c2ccccc12)C(=O)O)C(=O)O (stereo not drawn) [R,R-Monatin, 2R,4R-Monatin mono potassium salt], the “monatin concentration that most closely matched the sweetness of ice cream sweetened to 13% sucrose” value [1] was “about 45 ppm”, the “times as sweet as sucrose” value [1] was “about 2800 times” and the “times sweeter than sucrose by weight” value [2] was 2000-2400 times. The “Sucrose Equivalency Value” (panelists; pH 3.0 citric/citrate buffer) was 8.6% and the “Sucrose Equivalency Value” (panelists; pH 7.0 water) was 8.4%.
